Data as given in ChEMBL document CHEMBL4419173, “Small-molecule inhibitors targeting g-protein-coupled rho guanine nucleotide exchange factors” (2014).
Calls of active or inactive are those of the source. The calls are words filed in the database; no cut-off is given here.

Tests used:
MCF7 [1] = assay: Inhibition of RhoGEF in human MCF7 cells derived mammospheres assessed as inhibition of 10% calf serum-induced RhoA-GTP formation by measuring relative RhoA-GTP level incubated for 24 hrs by densitometry (reference value: 1); type: cell-based
NIH3T3 = assay: Toxicity in mouse NIH/3T3 cells assessed as induction of apoptosis at 10 to 50 uM incubated for 24 hrs by Annexin-V/7-AAD staining based FACS analysis; type: cell-based; settings: nih3t3, 24 h
Mus musculus [2] = species on record: Mus musculus; assay: Inhibition of RhoGEF in mouse NIH/3T3 cells assessed as inhibition of 10% calf serum-induced Rac1-GTP formation by measuring relative Rac1-GTP level at 50 uM incubated for 24 hrs by densitometry (reference value: 1); type: cell-based
[3] = biological target: Triple functional domain protein (Homo sapiens, UniProt O75962); assay: Binding affinity to GST-tagged human TrioN RhoGEF (1284 to 1711 residues) by microscale thermophoresis analysis
Mus musculus [4] = species on record: Mus musculus; assay: Inhibition of RhoGEF in mouse NIH/3T3 cells assessed as inhibition of 10% calf serum-induced Rac1-GTP formation by measuring relative Rac1-GTP level at 50 uM in presence of 50 uM Rhosin/G04 incubated for 24 hrs by densitometry (reference value: 1); type: cell-based
[5] = biological target: Rho GEF 11/Transforming protein RhoA (Homo sapiens) (UniProt P61586+O15085); assay: Inhibition of FLAG-tagged human PDZ RhoGEF DH-PH module expressed in mouse NIH/3T3 cells assessed as reduction in human full length RhoA (1 to 193 residues) interaction with PDZ RhoGEF at 30 to 50 uM incubated for 1 hr by Western blot analysis based GST-RhoA pull-down assay; type: cell-based
[6] = biological target: Intersectin-1 (Homo sapiens) (UniProt Q15811); assay: Inhibition of GST-tagged human intersectin-1 (1227 to 1571 residues) RhoGEF-catalyzed guanine nucleotide-exchange reaction of human full length Cdc42 (1 to 191 residues) by measuring inhibition of the GDP dissociation from Cdc42 at 0.76 to 250000 nM by Alexa 647 fluorescence dye based GDP/GTP exchange assay
MCF7 [7] = assay: Inhibition of mammospheres formation in human MCF7 cells at 2.5 to 15 uM in presence of 2.5 to 15 uM Rhosin/G04 incubated for 10 days; type: functional, cell-based
Mus musculus [8] = species on record: Mus musculus; assay: Inhibition of RhoGEF in mouse NIH/3T3 cells assessed as inhibition of 10% calf serum-induced RhoA-GTP formation by measuring relative RhoA-GTP level at 30 uM incubated for 24 hrs by densitometry (reference value: 1); type: cell-based
[9] = test system: Rho-associated protein kinase 2 (Homo sapiens), O75116 [UNDEFINED MUTATION]; assay: Inhibition of constitutively active ROCK2 mutant (unknown origin) expressed in mouse NIH/3T3 cells assessed as reduction in 10% calf serum-induced focal adhesion complex formation at 530 uM by anti-vinculin antibody staining based assay; type: cell-based
Chain of Rho-associated protein kinase 2 (Homo sapiens), O75116 [UNDEFINED MUTATION] (O75116 whole entry, looked up, change not shown, the tested form may be a part): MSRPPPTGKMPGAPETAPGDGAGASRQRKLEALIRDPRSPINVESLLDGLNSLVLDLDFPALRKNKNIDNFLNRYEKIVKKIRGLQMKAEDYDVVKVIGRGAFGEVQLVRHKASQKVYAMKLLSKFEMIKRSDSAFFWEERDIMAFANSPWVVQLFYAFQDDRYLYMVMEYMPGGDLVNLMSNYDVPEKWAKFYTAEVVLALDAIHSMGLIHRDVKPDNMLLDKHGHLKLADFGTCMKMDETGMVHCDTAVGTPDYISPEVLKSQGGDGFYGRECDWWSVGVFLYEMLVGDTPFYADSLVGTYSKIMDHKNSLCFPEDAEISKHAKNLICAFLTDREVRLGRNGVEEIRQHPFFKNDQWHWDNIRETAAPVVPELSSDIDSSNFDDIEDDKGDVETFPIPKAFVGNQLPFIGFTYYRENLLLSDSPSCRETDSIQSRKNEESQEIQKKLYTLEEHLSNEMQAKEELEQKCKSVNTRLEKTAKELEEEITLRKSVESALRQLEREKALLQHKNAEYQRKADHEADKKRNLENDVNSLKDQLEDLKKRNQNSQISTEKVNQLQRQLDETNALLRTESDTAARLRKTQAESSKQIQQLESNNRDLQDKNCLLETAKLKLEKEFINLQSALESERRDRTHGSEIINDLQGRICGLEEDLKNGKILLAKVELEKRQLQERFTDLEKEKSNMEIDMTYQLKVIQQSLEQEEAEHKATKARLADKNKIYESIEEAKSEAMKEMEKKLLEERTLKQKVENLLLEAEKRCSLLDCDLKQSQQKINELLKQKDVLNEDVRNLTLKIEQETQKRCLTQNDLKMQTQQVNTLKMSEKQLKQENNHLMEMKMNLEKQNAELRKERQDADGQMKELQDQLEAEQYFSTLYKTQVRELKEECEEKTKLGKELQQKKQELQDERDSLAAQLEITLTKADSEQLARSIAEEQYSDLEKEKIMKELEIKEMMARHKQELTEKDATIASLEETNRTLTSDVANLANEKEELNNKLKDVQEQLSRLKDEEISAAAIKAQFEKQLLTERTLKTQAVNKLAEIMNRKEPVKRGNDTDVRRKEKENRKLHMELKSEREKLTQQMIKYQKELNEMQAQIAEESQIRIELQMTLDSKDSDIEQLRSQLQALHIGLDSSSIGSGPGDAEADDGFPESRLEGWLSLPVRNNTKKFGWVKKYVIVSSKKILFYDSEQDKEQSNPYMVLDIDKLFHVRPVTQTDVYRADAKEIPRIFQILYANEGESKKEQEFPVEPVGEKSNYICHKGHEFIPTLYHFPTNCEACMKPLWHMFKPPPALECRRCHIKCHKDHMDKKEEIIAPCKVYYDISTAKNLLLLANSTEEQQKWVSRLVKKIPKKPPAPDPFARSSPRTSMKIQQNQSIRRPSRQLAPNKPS

[10] = biological target: T1, RhoGEF 1/Transforming protein RhoA (Homo sapiens) (UniProt P61586+Q92888); assay: Inhibition of GFP-tagged human p115 RhoGEF DH-PH module expressed in mouse NIH/3T3 cells assessed as reduction in human full length RhoA (1 to 193 residues) interaction with p115 RhoGEF at 30 to 50 uM incubated for 1 hr by Western blot analysis based GST-RhoA pull-down assay; type: cell-based
Mus musculus [11] = species on record: Mus musculus; assay: Inhibition of RhoGEF in mouse NIH/3T3 cells assessed as inhibition of 10% calf serum-induced Cdc42-GTP formation by measuring Cdc42-GTP level at 30 uM incubated for 24 hrs by densitometry relative to control (reference value: 3.25); type: cell-based
MCF7 [12] = assay: Inhibition of mammospheres formation in human MCF7 cells incubated for 10 days; type: functional, cell-based
Mus musculus [13] = species on record: Mus musculus; assay: Inhibition of RhoGEF in mouse NIH/3T3 cells assessed as inhibition of 10% calf serum-induced Cdc42-GTP formation by measuring relative Cdc42-GTP level at 50 uM in presence of 50 uM Rhosin/G04 incubated for 24 hrs by densitometry (reference value: 1); type: cell-based
[14] = biological target: Rho guanine nucleotide exchange factor 12 (Homo sapiens, UniProt Q9NZN5); assay: Inhibition of human LARG (765 to 1138 residues) RhoGEF binding to human full length RhoA (1 to 193 residues)
Chain of Rho guanine nucleotide exchange factor 12 (Q9NZN5 whole entry, the tested form may be a part): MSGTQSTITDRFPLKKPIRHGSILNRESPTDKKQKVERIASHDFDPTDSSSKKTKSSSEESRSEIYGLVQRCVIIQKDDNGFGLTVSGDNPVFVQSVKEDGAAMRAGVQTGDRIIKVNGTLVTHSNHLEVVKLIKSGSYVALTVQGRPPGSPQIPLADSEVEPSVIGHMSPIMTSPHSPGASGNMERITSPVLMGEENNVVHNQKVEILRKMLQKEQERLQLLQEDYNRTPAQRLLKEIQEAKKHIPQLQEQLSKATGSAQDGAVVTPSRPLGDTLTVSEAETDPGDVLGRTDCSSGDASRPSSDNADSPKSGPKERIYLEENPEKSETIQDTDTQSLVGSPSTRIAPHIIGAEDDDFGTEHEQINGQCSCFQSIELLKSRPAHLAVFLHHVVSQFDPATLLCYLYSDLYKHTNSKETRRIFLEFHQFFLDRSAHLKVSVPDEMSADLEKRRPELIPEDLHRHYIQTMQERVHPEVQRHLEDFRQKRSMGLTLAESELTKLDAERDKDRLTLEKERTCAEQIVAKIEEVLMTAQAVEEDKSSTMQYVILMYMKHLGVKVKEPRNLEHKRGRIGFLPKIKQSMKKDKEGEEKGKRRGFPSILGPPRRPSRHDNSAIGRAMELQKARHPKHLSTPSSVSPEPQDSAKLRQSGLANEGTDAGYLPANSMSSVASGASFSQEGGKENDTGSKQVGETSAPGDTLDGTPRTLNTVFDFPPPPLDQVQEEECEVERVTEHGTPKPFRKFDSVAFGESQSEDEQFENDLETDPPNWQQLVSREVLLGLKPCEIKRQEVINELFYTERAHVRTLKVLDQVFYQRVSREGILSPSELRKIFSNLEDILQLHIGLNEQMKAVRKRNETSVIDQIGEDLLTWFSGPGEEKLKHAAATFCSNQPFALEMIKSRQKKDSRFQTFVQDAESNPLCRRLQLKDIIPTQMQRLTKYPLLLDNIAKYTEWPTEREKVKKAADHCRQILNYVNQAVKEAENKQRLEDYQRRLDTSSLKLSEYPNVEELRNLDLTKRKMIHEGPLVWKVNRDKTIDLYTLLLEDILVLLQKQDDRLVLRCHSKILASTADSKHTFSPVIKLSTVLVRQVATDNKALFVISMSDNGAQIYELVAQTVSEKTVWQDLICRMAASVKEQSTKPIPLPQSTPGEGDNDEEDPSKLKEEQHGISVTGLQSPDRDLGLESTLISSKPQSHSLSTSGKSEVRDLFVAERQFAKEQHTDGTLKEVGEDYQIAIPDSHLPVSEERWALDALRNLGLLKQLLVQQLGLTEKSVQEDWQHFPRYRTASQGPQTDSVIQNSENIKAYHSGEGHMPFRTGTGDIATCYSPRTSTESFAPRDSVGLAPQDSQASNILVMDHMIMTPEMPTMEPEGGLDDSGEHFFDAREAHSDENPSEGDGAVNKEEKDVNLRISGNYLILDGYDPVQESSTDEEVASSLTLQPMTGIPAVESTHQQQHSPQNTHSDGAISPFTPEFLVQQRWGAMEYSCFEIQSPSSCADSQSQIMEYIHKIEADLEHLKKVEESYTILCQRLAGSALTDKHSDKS

MCF7 [15] = assay: Inhibition of cell migration of human MCF7 cells at 2.5 to 30 uM in presence of 2.5 to 30 uM Rhosin/G04; type: functional, cell-based
[16] = biological target: T1, RhoGEF 1/Transforming protein RhoA (Homo sapiens); assay: Binding affinity to human LARG (765 to 1138 residues) DH-PH module expressed in mouse NIH/3T3 cells assessed as reduction in LARG binding to human full length RhoA (1 to 193 residues) by measuring relative LARG binding level at 5 uM in presence of 5 uM Rhosin/G04 pull-down assay (reference value: 1 No unit); type: cell-based
MCF7 [17] = assay: Inhibition of RhoGEF in human MCF7 cells derived mammospheres assessed as inhibition of 10% calf serum-induced RhoA-GTP formation by measuring relative RhoA-GTP level at 30 uM incubated for 24 hrs by densitometry (reference value: 1); type: cell-based
Homo sapiens = species on record: Homo sapiens; assay: Inhibition of GST-tagged human TrioN (1284 to 1711 residues) RhoGEF-catalyzed guanine nucleotide-exchange reaction of human full length Rac1 (1 to 192 residues) by measuring inhibition of the GDP dissociation from Rac1 at 0.76 to 250000 nM by Alexa 647 fluorescence dye based GDP/GTP exchange assay
Mus musculus [18] = species on record: Mus musculus; assay: Inhibition of RhoGEF-mediated RhoA signaling in mouse NIH/3T3 cells assessed as inhibition of SDF1a-induced phospho-MLC formation at 10 to 30 uM incubated for 24 hrs by densitometry; type: cell-based
[19] = biological target: Serine/threonine-protein kinase N1/Transforming protein RhoA (Homo sapiens) (UniProt Q16512+P61586); assay: Inhibition of human PKN1 expressed in mouse NIH/3T3 cells assessed as reduction in human full length RhoA (1 to 193 residues) interaction with PKN1 at 50 to 200 uM incubated for 1 hr by Western blot analysis based His-RhoA pull-down assay; type: cell-based
Chain of Serine/threonine-protein kinase N1/Transforming protein RhoA (Homo sapiens) (P61586 whole entry, looked up, the tested form may be a part): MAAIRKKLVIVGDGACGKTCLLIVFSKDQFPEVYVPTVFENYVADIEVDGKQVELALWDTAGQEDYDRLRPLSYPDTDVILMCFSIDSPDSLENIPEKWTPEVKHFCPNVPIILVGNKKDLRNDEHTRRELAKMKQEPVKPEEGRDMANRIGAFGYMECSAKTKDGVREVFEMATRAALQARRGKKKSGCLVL
Chain of Serine/threonine-protein kinase N1/Transforming protein RhoA (Homo sapiens) (Q16512 whole entry, looked up, the tested form may be a part): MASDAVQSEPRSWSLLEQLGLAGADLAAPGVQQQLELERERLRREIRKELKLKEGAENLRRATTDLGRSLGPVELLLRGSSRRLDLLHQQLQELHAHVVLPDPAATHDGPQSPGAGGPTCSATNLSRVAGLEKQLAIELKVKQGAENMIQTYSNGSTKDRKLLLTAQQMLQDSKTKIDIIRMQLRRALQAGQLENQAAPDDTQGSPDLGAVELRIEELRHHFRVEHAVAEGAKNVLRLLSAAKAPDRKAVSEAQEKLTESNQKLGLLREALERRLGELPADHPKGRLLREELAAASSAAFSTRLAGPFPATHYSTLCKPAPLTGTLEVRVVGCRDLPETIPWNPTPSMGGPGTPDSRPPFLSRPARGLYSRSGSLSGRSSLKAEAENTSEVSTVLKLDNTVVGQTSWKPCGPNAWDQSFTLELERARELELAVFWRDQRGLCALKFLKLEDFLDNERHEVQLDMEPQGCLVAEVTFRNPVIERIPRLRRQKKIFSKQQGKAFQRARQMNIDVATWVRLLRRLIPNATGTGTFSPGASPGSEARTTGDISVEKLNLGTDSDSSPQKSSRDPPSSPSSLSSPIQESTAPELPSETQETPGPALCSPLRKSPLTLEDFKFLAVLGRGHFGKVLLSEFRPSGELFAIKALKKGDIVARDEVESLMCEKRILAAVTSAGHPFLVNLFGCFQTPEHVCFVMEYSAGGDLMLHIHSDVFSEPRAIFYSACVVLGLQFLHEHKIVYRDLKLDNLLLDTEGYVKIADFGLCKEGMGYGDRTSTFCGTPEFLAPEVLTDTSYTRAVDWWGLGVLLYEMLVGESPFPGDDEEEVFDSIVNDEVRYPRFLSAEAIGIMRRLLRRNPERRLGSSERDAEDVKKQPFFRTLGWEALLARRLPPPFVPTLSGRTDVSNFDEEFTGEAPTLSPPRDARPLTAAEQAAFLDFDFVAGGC

Mus musculus [20] = species on record: Mus musculus; assay: Inhibition of RhoGEF in mouse NIH/3T3 cells assessed as inhibition of 10% calf serum-induced RhoA-GTP formation by measuring RhoA-GTP level at 30 uM incubated for 24 hrs by densitometry relative to control (reference value: 2.15); type: cell-based
Mus musculus [21] = species on record: Mus musculus; assay: Inhibition of RhoGEF in mouse NIH/3T3 cells assessed as inhibition of 10% calf serum-induced Cdc42-GTP formation by measuring Cdc42-GTP level at 10 uM incubated for 24 hrs by densitometry relative to control (reference value: 3.25); type: cell-based
Mus musculus [22] = species on record: Mus musculus; assay: Inhibition of RhoGEF-mediated RhoA signaling in mouse NIH/3T3 cells assessed as inhibition of SDF1a-induced phospho-FAK formation at 10 to 30 uM incubated for 24 hrs by densitometry; type: cell-based
[23] = biological target: Rho-associated protein kinase 2/Transforming protein RhoA (Homo sapiens) (UniProt O75116+P61586); assay: Inhibition of human ROCK2 expressed in mouse NIH/3T3 cells assessed as reduction in human full length RhoA (1 to 193 residues) interaction with ROCK2 at 50 to 200 uM incubated for 1 hr by Western blot analysis based His-RhoA pull-down assay; type: cell-based
Chain of Rho-associated protein kinase 2/Transforming protein RhoA (Homo sapiens) (O75116 whole entry, looked up, the tested form may be a part): as the sequence (O75116 whole entry, looked up, change not shown, the tested form may be a part) above
Chain of Rho-associated protein kinase 2/Transforming protein RhoA (Homo sapiens) (P61586 whole entry, looked up, the tested form may be a part): as the sequence (P61586 whole entry, looked up, the tested form may be a part) above

Cc1cccc(COc2cccc(/C=C3\C(=O)NN(c4ccccc4)C3=O)c2)c1
inhibition (MCF7 [1]): Dose-dependent effect
Activity (NIH3T3): Non-Toxic
fold change (FC) (Mus musculus [2]): 0.93
Kd [3]: 774 µM
fold change (FC) (Mus musculus [4]): 1.19
inhibition [5]: Active
inhibition [6]: inactive
inhibition (MCF7 [7]): Active
fold change (FC) (Mus musculus [8]): 0.51
inhibition [9]: inactive
inhibition [10]: Active
fold change (FC) (Mus musculus [11]): 2.11
inhibition (MCF7 [12]): Dose-dependent effect
fold change (FC) (Mus musculus [13]): 1.27
IC50 [14]: 5 µM
inhibition (MCF7 [15]): Active
fold change (FC) [16]: 0.28
fold change (FC) (MCF7 [17]): 0.15
inhibition (Homo sapiens): inactive
inhibition (Mus musculus [18]): Active
inhibition [19]: inactive
fold change (FC) (Mus musculus [20]): 0.87
fold change (FC) (Mus musculus [21]): 2.23
inhibition (Mus musculus [22]): Active
inhibition [23]: inactive
